Assay results reported in US11286268B1, “EIF4E-inhibiting compounds and methods” (EFFECTOR THERAPEUTICS, INC., priority 2019, dated 2022).
Where two headings read alike, the source gives them in different places.

Target: recombinant eIF4E (Homo sapiens (Human), UniProt P06730)
Assay: Fluorescence polarization competition assay for eIF4E binding potency
Outline: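 Protein and fluorescent cap-analog probe (EDA-m7GDP-ATTO-550) were mixed first for 5 min, after which serially diluted compound was added to final 75 nM eIF4E, 20 nM probe, 1% DMSO. Reactions equilibrated 30 min at room temperature before polarization was measured.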

[1] = fluorescence polarization competition, 75 nM recombinant eIF4E, 20 nM EDA-m7GDP-ATTO-550, IC50 class, read-out: elF4E FP
[2] = inhibition of eIF4E/EDA-m7GDP-ATTO-550 binding by 50%, Table 4B calculated values, read-out: IC50

recombinant eIF4E, sequence (P06730 whole entry): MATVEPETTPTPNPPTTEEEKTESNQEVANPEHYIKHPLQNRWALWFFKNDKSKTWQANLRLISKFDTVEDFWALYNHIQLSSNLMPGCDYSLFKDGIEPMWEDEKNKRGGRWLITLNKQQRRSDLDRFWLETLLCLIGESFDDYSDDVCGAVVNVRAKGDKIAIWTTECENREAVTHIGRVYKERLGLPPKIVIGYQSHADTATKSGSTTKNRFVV

Row | IC50 [1] | IC50 [2] | SMILES
1 | < 50 nM | 46 nM | Cc1nc2cc(CN(C)C)c(C(F)F)c(C#N)c2c(=O)n1CCOc1ccc(Cl)cc1-c1ccnc2c(C(=O)O)csc12 [compound 515]
2 | < 50 nM | 34.4 nM | Cc1nc2cc(CN(C)C)c(Cl)c(C#N)c2c(=O)n1CCOc1ccc(Cl)cc1-c1ccnc2c(C(=O)O)csc12 [compound 516]
3 | < 50 nM | 35.7 nM | Cc1nc2cc(CN(C)C)c(F)c(C#N)c2c(=O)n1CCOc1ccc(Cl)cc1-c1ccnc2c(C(=O)O)csc12 [compound 517]
4 | < 50 nM | 16.4 nM | Cc1nc2c(F)c(CN(C)C)c(C(F)F)c(C#N)c2c(=O)n1CCOc1ccc(Cl)cc1-c1ccnc2c(C(=O)O)csc12 [compound 518]
5 | < 50 nM | 37.8 nM | Cc1nc2cc(C(F)(F)F)c(Cl)c(C#N)c2c(=O)n1CCOc1ccc(Cl)cc1-c1ccnc2c(C(=O)NS(C)(=O)=O)csc12 [compound 519]
6 | < 50 nM | 18.3 nM | Cc1nc2cc(Cl)c(C(F)F)c(C#N)c2c(=O)n1CCOc1ccc(Cl)cc1-c1ccnc2c(C(=O)NS(C)(=O)=O)csc12 [compound 520]
7 | 50 to 1000 nM | 623 nM | CONC(=O)c1csc2c(-c3cc(Cl)ccc3OCCn3c(C)nc4cc(C(F)(F)F)c(Cl)c(C#N)c4c3=O)ccnc12 [compound 521]
8 | < 50 nM | 22.7 nM | Cc1nc2cc(C(F)(F)F)c(CN3CCC(F)(F)CC3)c(C#N)c2c(=O)n1CCOc1ccc(Cl)cc1-c1ccnc2c(C(=O)O)csc12 [compound 522]
9 | < 50 nM | 34.7 nM | Cc1nc2cc(C(F)(F)F)c(CN(C)CC(F)F)c(C#N)c2c(=O)n1CCOc1ccc(Cl)cc1-c1ccnc2c(C(=O)O)csc12 [compound 525]
10 | 50 to 1000 nM | 64.1 nM | Cc1nc2cc(C(F)(F)F)c(CN3CCCC3)c(C#N)c2c(=O)n1CCOc1ccc(Cl)cc1-c1ccnc2c(C(=O)O)csc12 [compound 526]
11 | < 50 nM | 24.8 nM | CCN(CC)Cc1c(C(F)(F)F)cc2nc(C)n(CCOc3ccc(Cl)cc3-c3ccnc4c(C(=O)O)csc34)c(=O)c2c1C#N [compound 527]
12 | < 50 nM | 27.1 nM | Cc1nc2cc(C(F)(F)F)c(CN3CCCCC3)c(C#N)c2c(=O)n1CCOc1ccc(Cl)cc1-c1ccnc2c(C(=O)O)csc12 [compound 528]
13 | < 50 nM | 5.78 nM | Cc1cc(-c2cc(Cl)ccc2OCCn2c(C)nc3ccc(C(F)(F)CN(C)C)c(C#N)c3c2=O)c2scc(C(=O)O)c2n1 [compound 529]
14 | < 50 nM | 6.65 nM | Cc1nc2cc(C(F)F)c(CN(C)C)c(C#N)c2c(=O)n1CCOc1ccc(Cl)cc1-c1ccnc2c(C(=O)O)csc12 [compound 530]
15 | < 50 nM | 42.9 nM | Cc1nc2cc(OC(F)F)c(CN(C)C)c(C#N)c2c(=O)n1CCOc1ccc(Cl)cc1-c1ccnc2c(C(=O)O)csc12 [compound 531]
16 | < 50 nM | 45.1 nM | Cc1nc2cc(OC(F)(F)F)c(CN(C)C)c(C#N)c2c(=O)n1CCOc1ccc(Cl)cc1-c1ccnc2c(C(=O)O)csc12 [compound 532]
17 | 50 to 1000 nM | 62.7 nM | COCc1cc(F)c2cc(C)n(CCOc3ccc(Cl)cc3-c3ccnc4c(C(=O)O)csc34)c(=O)c2c1C#N [compound 533]
18 | < 50 nM | 30.2 nM | CSCc1cc(F)c2cc(C)n(CCOc3ccc(Cl)cc3-c3ccnc4c(C(=O)O)csc34)c(=O)c2c1C#N [compound 534]
19 | 50 to 1000 nM | 244 nM | Cc1nc2cc(C(F)(F)F)cc(C#N)c2c(=O)n1CCOc1ccc(Cl)cc1C1CCNC(C(=O)O)C1 (stereo not drawn) [compound 535]
20 | < 50 nM | 46.6 nM | Cc1nc2cc(OC(F)F)c(Cl)c(C#N)c2c(=O)n1CCOc1ccc(Cl)cc1-c1ccnc2c(C(=O)O)csc12 [compound 537]
21 | < 50 nM | 22.3 nM | Cc1nc2cc(OC(F)F)c(C#N)c(C#N)c2c(=O)n1CCOc1ccc(Cl)cc1-c1ccnc2c(C(=O)O)csc12 [compound 538]
22 | < 50 nM | 47.2 nM | Cc1nc2cc(OC(F)F)c(C(F)F)c(C#N)c2c(=O)n1CCOc1ccc(Cl)cc1-c1ccnc2c(C(=O)O)csc12 [compound 539]
23 | < 50 nM | 14 nM | Cc1nc2cc(OC(F)F)c(C(F)(F)F)c(C#N)c2c(=O)n1CCOc1ccc(Cl)cc1-c1ccnc2c(C(=O)O)csc12 [compound 540]
24 | < 50 nM | 49.1 nM | Cc1nc2cc(OC(F)F)c(OC(F)F)c(C#N)c2c(=O)n1CCOc1ccc(Cl)cc1-c1ccnc2c(C(=O)O)csc12 [compound 541]
25 | < 50 nM | 20.2 nM | Cc1nc2cc(OC(F)(F)F)c(Cl)c(C#N)c2c(=O)n1CCOc1ccc(Cl)cc1-c1ccnc2c(C(=O)O)csc12 [compound 542]

Row | IC50 [1] | IC50 [2] | SMILES
26 | < 50 nM | 38.2 nM | Cc1nc2cc(OC(F)(F)F)c(C#N)c(C#N)c2c(=O)n1CCOc1ccc(Cl)cc1-c1ccnc2c(C(=O)O)csc12 [compound 543]
27 | < 50 nM | 7.81 nM | Cc1nc2cc(F)c(OC(F)F)c(C#N)c2c(=O)n1CCOc1ccc(Cl)cc1-c1ccnc2c(C(=O)O)csc12 [compound 545]
28 | < 50 nM | 43.6 nM | Cc1nc2cc(Cl)c(OC(F)F)c(C#N)c2c(=O)n1CCOc1ccc(Cl)cc1-c1ccnc2c(C(=O)O)csc12 [compound 546]
29 | 50 to 1000 nM | 134 nM | Cc1nc2cc(C#N)c(OC(F)F)c(C#N)c2c(=O)n1CCOc1ccc(Cl)cc1-c1ccnc2c(C(=O)O)csc12 [compound 547]
30 | < 50 nM | 47.2 nM | Cc1nc2cc(C(F)F)c(OC(F)F)c(C#N)c2c(=O)n1CCOc1ccc(Cl)cc1-c1ccnc2c(C(=O)O)csc12 [compound 548]
31 | < 50 nM | 19.3 nM | Cc1nc2cc(C(F)(F)F)c(OC(F)F)c(C#N)c2c(=O)n1CCOc1ccc(Cl)cc1-c1ccnc2c(C(=O)O)csc12 [compound 549]
32 | 50 to 1000 nM | 87.8 nM | Cc1nc2cc(Cl)c(OC(F)(F)F)c(C#N)c2c(=O)n1CCOc1ccc(Cl)cc1-c1ccnc2c(C(=O)O)csc12 [compound 550]
33 | < 50 nM | 29.2 nM | Cc1nc2cc(C(F)F)c(OC(F)(F)F)c(C#N)c2c(=O)n1CCOc1ccc(Cl)cc1-c1ccnc2c(C(=O)O)csc12 [compound 551]
34 | 50 to 1000 nM | 50.9 nM | Cc1nc2cc(CN(C)C)c(OC(F)(F)F)c(C#N)c2c(=O)n1CCOc1ccc(Cl)cc1-c1ccnc2c(C(=O)O)csc12 [compound 552]
35 | < 50 nM | 13.4 nM | Cc1nc2cc(C(F)(F)F)c(CN(C)C)c(C#N)c2c(=O)n1CC#Cc1ccc(Cl)cc1-c1ccnc2c(C(=O)O)csc12 [compound 553]
36 | < 50 nM | 31.8 nM | Cc1nc2cc(C(F)(F)F)c(Cl)c(C#N)c2c(=O)n1CC#Cc1ccc(Cl)cc1-c1ccnc2c(C(=O)O)csc12 [compound 554]
37 | < 50 nM | 10.8 nM | Cc1sc2c(-c3cc(Cl)ccc3OCCn3c(C)nc4cc(C(F)(F)F)c(Cl)c(C#N)c4c3=O)ccnc2c1C(=O)O [compound 555]
38 | < 50 nM | 22.7 nM | Cc1sc2c(-c3cc(Cl)ccc3OCCn3c(C)nc4cc(C(F)(F)F)c(CN(C)C)c(C#N)c4c3=O)ccnc2c1C(=O)O [compound 556]
39 | < 50 nM | 6.4 nM | Cc1nc2c(F)cc(C(F)F)c(C#N)c2c(=O)n1CC#Cc1ccc(Cl)cc1-c1ccnc2c(C(=O)O)csc12 [compound 557]
40 | < 50 nM | 27.2 nM | Cc1cc(-c2cc(Cl)ccc2OCCn2c(C)nc3cc(C(F)(F)F)c(Cl)c(C#N)c3c2=O)c2scc(C(=O)O)c2n1 [compound 558]
41 | < 50 nM | 8.69 nM | Cc1cc(-c2cc(Cl)ccc2OCCn2c(C)nc3cc(C(F)(F)F)c(CN(C)C)c(C#N)c3c2=O)c2scc(C(=O)O)c2n1 [compound 559]
42 | < 50 nM | 4.77 nM | Cc1cc(-c2cc(Cl)ccc2C#CCn2c(C)nc3cc(C(F)(F)F)cc(C#N)c3c2=O)c2scc(C(=O)O)c2n1 [compound 560]
43 | 50 to 1000 nM | 56.2 nM | Cc1cc(-c2cc(Cl)ccc2C#CCn2c(C)nc3cc(C(F)(F)F)c(Cl)c(C#N)c3c2=O)c2scc(C(=O)O)c2n1 [compound 561]
44 | < 50 nM | 8.78 nM | Cc1cc(-c2cc(Cl)ccc2C#CCn2c(C)nc3cc(C(F)(F)F)c(CN(C)C)c(C#N)c3c2=O)c2scc(C(=O)O)c2n1 [compound 562]
45 | < 50 nM | 14.4 nM | Cc1nc2cc(C(F)(F)F)cc(C#N)c2c(=O)n1CCOc1ccc(Cl)cc1-c1cc(C(F)F)nc2c(C(=O)O)csc12 [compound 563]
46 | < 50 nM | 40.5 nM | Cc1ccc(-c2cc(Cl)ccc2OCCn2c(C)nc3cc(C(F)(F)F)c(CN(C)C)c(C#N)c3c2=O)c2scc(C(=O)O)c12 [compound 564]
47 | < 50 nM | 29.7 nM | Cc1cc(-c2cc(Cl)ccc2OCCn2c(C)nc3cc(C(F)(F)F)cc(C#N)c3c2=O)c2scc(C(=O)NS(C)(=O)=O)c2n1 [compound 565]
48 | < 50 nM | 16.4 nM | Cc1cc(-c2cc(Cl)ccc2OCCn2c(C)nc3c(F)cc(C(F)F)c(C#N)c3c2=O)c2scc(C(=O)NS(C)(=O)=O)c2n1 [compound 566]
49 | < 50 nM | 11.7 nM | Cc1cc(-c2cc(Cl)ccc2OCCn2c(C)nc3cc(F)c(F)c(C#N)c3c2=O)c2scc(C(=O)NS(C)(=O)=O)c2n1 [compound 567]
50 | < 50 nM | 14.1 nM | Cc1cc(-c2cc(Cl)ccc2OCCn2c(C)nc3cc(C(F)(F)F)c(CN(C)C)c(C#N)c3c2=O)c2scc(C(=O)NS(C)(=O)=O)c2n1 [compound 568]

Row | SMILES | IC50 [1] | IC50 [2]
51 | Cc1nc2cc(C(F)(F)F)c(CN3[C@@H]4CC[C@H]3COC4)c(C#N)c2c(=O)n1CCOc1ccc(Cl)cc1-c1ccnc2c(C(=O)O)csc12 [compound 523] | < 50 nM | 23.9 nM
